Common to all, as to assay type: in vivo
Assay [1] concerns Green Peach Aphid (Myzus persicae). Briefly: Green peach aphid spray test on bell pepper plants, mortality. The following applies: 120 h, after 5 days, sprayed bell pepper plants, read-out: mortality in comparison with untreated controls. From the text: (§1) The active compounds were formulated in cyclohexanone as a 10,000 ppm solution supplied in tubes. The tubes were inserted into an automated electrostatic sprayer equipped with an atomizing nozzle and they served as stock solutions for which lower dilutions were made in 50% acetone:50% water (v/v). A nonionic surfactant (Kinetic®) was included in the solution at a volume of 0.01% (v/v).
Bell pepper plants at the first true-leaf stage were infested prior to treatment by placing heavily infested leaves from the main colony on top of the treatment plants. Aphids were allowed to transfer overnight to accomplish an infestation of 30-50 aphids per plant and the host leaves were removed. The infested plants were then sprayed by an automated electrostatic plant sprayer equipped with an atomizing spray nozzle. The plants were dried in the sprayer fume hood, removed, and then maintained in a growth room under fluorescent lighting in a 24-hr photoperiod at about 25° C. and about 20-40% relative humidity. Aphid mortality on the treated plants, relative to mortality on untreated control plants, was determined after 5 days.

Assay [2] deals with Southern Armyworm (Spodoptera eridiana); 2nd Instar Larvae. Put plainly: Southern armyworm foliar spray test on lima bean, mortality. The following applies: for mortality at 1 ppm: Concentration 1 ppm; for mortality at 1 ppm / mortality at 10 ppm / mortality at 30 ppm: southern armyworm, Table D; for mortality at 10 ppm: Concentration 10 ppm; for mortality at 30 ppm: Concentration 30 ppm; for mortality at 500 ppm: Spodoptera, 96 h, 4 days after treatment, lima bean foliage spray, read-out: mortality in comparison with untreated controls. The procedure:
as §1
Lima bean plants (variety Sieva) were grown 2 plants to a pot and selected for treatment at the 1st true leaf stage. Test solutions were sprayed onto the foliage by an automated electrostatic plant sprayer equipped with an atomizing spray nozzle. The plants were dried in the sprayer fume hood and then removed from the sprayer. Each pot was placed into perforated plastic bags with a zip closure. About 10 to 11 armyworm larvae were placed into the bag and the bags zipped closed. Test plants were maintained in a growth room at about 25° C. and about 20-40% relative humidity for 4 days, avoiding direct exposure to fluorescent light (24 hour photoperiod) to prevent trapping of heat inside the bags. Mortality and reduced feeding were assessed 4 days after treatment, compared to untreated control plants.

Assay [3] deals with Mediterranean Fruitfly (Ceratitis capitata). Put plainly: Mediterranean fruitfly microtiter diet test, egg and larval mortality. The following applies: 120 h, 5 days, insect diet, read-out: mortality in comparison with untreated controls. The procedure:
For evaluating control of Mediterranean fruitfly (Ceratitis capitata) the test unit consisted of microtiter plates containing an insect diet and 50-80 C. capitata eggs.
The compounds were formulated using a solution containing 75% v/v water and 25% v/v DMSO. Different concentrations of formulated compounds were sprayed onto the insect diet at 5 μl, using a custom built micro atomizer, at two replications.
After application, microtiter plates were incubated at about 28±1° C. and about 80±5% relative humidity for 5 days. Egg and larval mortality was then visually assessed.

Assay [4] concerns Diamond Backmoth (Plutella xylostella). Briefly: Diamond backmoth leaf-dip test, mortality. The following applies: 72 hours after treatment, 3rd instar larvae on dipped cabbage leaves, read-out: mortality in comparison with untreated controls. The procedure: The active compound was dissolved at the desired concentration in a mixture of 1:1 (vol:vol) distilled water:aceteone. Surfactant (Alkamuls® EL 620) was added at a rate of 0.1% (vol/vol). The test solution was prepared at the day of use.
Leaves of cabbage were dipped in test solution and air-dried. Treated leaves were placed in petri dishes lined with moist filter paper and inoculated with ten 3rd instar larvae. Mortality was recorded 72 hours after treatment. Feeding damages were also recorded using a scale of 0-100%.

The test system of assay [5] is Boll weevil (Anthonomus grandis). Put plainly: Boll weevil microtiter diet test, egg and larval mortality. Particulars: 120 h, 5 days, insect diet, read-out: mortality in comparison with untreated controls. The method, then: For evaluating control of boll weevil (Anthonomus grandis) the test unit consisted of 24-well-microtiter plates containing an insect diet and 20-30 A. grandis eggs.
The compounds were formulated using a solution containing 75% v/v water and 25% v/v DMSO. Different concentrations of formulated compounds were sprayed onto the insect diet at 20 μl, using a custom built micro atomizer, at two replications.
After application, microtiter plates were incubated at about 23±1° C. and about 50±5% relative humidity for 5 days. Egg and larval mortality was then visually assessed.

Assay [6] has as its system Colorado Potato Beetle (Leptinotarsa decemlineata) (2nd instar larvae). Put plainly: Colorado potato beetle foliar spray test on eggplant, mortality. Particulars: 96 h, 4 days after treatment, Table E; for mortality at 1 ppm: Concentration 1 ppm; for mortality at 10 ppm: Concentration 10 ppm; for mortality at 30 ppm: Concentration 30 ppm. The method, then: as §1
Eggplants were grown 2 plants to a pot and were selected for treatment at the 1st true leaf stage. Test solutions were sprayed onto the foliage by an automated electrostatic plant sprayer equipped with an atomizing spray nozzle. The plants were dried in the sprayer fume hood and then removed from the sprayer. The treated foliage was then cut and removed from the pot and placed in a Petri dish lined with moistened filter paper. Five beetle larvae were introduced into each Petri dish and the dish was covered by a Petri dish lid. Petri dishes were maintained in a growth room at about 25° C. and about 20-40% relative humidity for 4 days, avoiding direct exposure to fluorescent light (24 hour photoperiod) to prevent trapping of heat inside the dishes. Mortality and reduced feeding were assessed 4 days after treatment, compared to untreated control plants.

Assay [7] relates to Vetch aphid (Megoura viciae). Put plainly: Vetch aphid broad bean leaf disk test, mortality. Particulars: foliar, 120 h, 5 days, adult aphids on broad bean leaf disks, read-out: mortality in comparison with untreated controls. The procedure:
For evaluating control of vetch aphid (Megoura viciae) through contact or systemic means the test unit consisted of 24-well-microtiter plates containing broad bean leaf disks.
The compounds were formulated using a solution containing 75% v/v water and 25% v/v DMSO. Different concentrations of formulated compounds were sprayed onto the leaf disks at 2.5 μl, using a custom built micro atomizer, at two replications.
After application, the leaf disks were air-dried and 5-8 adult aphids placed on the leaf disks inside the microtiter plate wells. The aphids were then allowed to suck on the treated leaf disks and incubated at about 23±1° C. and about 50±5% relative humidity for 5 days. Aphid mortality and fecundity was then visually assessed.

For assay [8], the system named is TOBACCO budworm (Heliothis virescens). Briefly: Tobacco budworm microtiter diet test, egg and larval mortality. Particulars: 120 h, 5 days, insect diet, read-out: mortality in comparison with untreated controls. The method, then:
For evaluating control of tobacco budworm (Heliothis virescens) the test unit consisted of 96-well-microtiter plates containing an insect diet and 15-25 H. virescens eggs. The compounds were formulated using a solution containing 75% v/v water and 25% v/v DMSO. Different concentrations of formulated compounds were sprayed onto the insect diet at 10 μl, using a custom built micro atomizer, at two replications.
After application, microtiter plates were incubated at about 28±1° C./and about 80±5% relative humidity for 5 days. Egg and larval mortality was then visually assessed.

Assay [9] concerns Orchid Thrips (dichromothrips corbetti). Put plainly: Orchid thrips floral-immersion test, mortality. The following applies: 72 hours after treatment, adult thrips, read-out: mortality in comparison with untreated controls. The procedure: Dichromothrips corbetti adults used for bioassay were obtained from a colony maintained continuously under laboratory conditions. For testing purposes, the test compound was diluted in a 1:1 mixture of acetone:water (vol:vol), plus 0.01% vol/vol Alkamuls® EL 620 surfactant.
Thrips potency of each compound was evaluated by using a floral-immersion technique. Plastic petri dishes were used as test arenas. All petals of individual, intact or chid flowers were dipped into treatment solution and allowed to dry. Treated flowers were placed into individual petri dishes along with about 20 adult thrips. The petri dishes were then covered with lids. All test arenas were held under continuous light and a temperature of about 28° C. for duration of the assay. After 3 days, the numbers of live thrips were counted on each flower, and along inner walls of each petri dish. The percent mortality was recorded 72 hours after treatment.

For assay [10], the system named is Cowpea Aphid (Aphis Craccivora). Briefly: Cowpea aphid spray test on potted cowpea plants, mortality. Particulars: after 72 hours, sprayed cowpea plants, read-out: mortality in comparison with untreated controls. The method, then: The active compound was dissolved at the desired concentration in a mixture of 1:1 (vol:vol) distilled water:acetone. Surfactant (Alkamuls® EL 620) is added at a rate of 0.1% (vol/vol). The test solution was prepared at the day of use.
Potted cowpea plants were colonized with approximately 50-100 aphids of various stages by manually transferring a leaf tissue cut from infested plant 24 hours before application. Plants were sprayed after the pest population has been recorded. Treated plants were maintained on light carts at about 28° C. Percent mortality was assessed after 72 hours.

Mortality data for 4 compounds are collected here from patent US20140200135A1, “Carbamoylmethoxy- and carbamoylmethylthio- and carbamoylmethylamino benzamides for combating invertebrate pests” (BASF SE, priority 2011, published 2014).

A value given as a limit tells only on which side of the number the result lay.

The mortality is the percentage killed. Regarding `CNC(=O)CONC(=O)c1cc(Cl)cc(C)c1NC(=O)c1cc(Br)nn1-c1ncccc1Cl` [Compound 1-3, 5-bromo-2-(3-chloro-pyridin-2-yl)-2H-pyrazole-3-carboxylic acid (4-chloro-2-methyl-6-methylcarbamoylmethoxycarbamoyl-phenyl)-amide], the mortality at 2500 ppm in assay [1], in assay [3], in assay [5], in [7] and in assay [8] was more than 75% in each case. The mortality at 1 ppm in assay [2] and in assay [6] was 100% each time. For the same compound, the mortality at 10 ppm in [2] and in assay [6] was 100% in each case. Further, the mortality at 30 ppm in [2] and in assay [6] was 100% throughout. Further, the mortality at 500 ppm in assay [2] and in [4] was 100% in each case.

With `CNC(=O)CONC(=O)c1cc(Br)cc(Br)c1NC(=O)c1cc(Br)nn1-c1ncccc1Cl` [Compound 1-10, 5-bromo-2-(3-chloro-pyridin-2-yl)-2H-pyrazole-3-carboxylic acid (2,4-dibromo-6-methylcarbamoylmethoxycarbamoyl-phenyl)-amide], the mortality at 2500 ppm in assay [1], in [3], in [5], in assay [7] and in assay [8] was more than 75% in each case. Moreover, the mortality at 500 ppm in [9] is more than 75%; in [2], 100%; in [4] it was 100%; in assay [10], more than 75%.

In the case of `Cc1cc(Cl)cc(C(=O)NNCC(=O)NCc2ccccc2)c1NC(=O)c1cc(Br)nn1-c1ncccc1Cl` [Compound 1-11, 5-bromo-2-(3-chloro-pyridin-2-yl)-2H-pyrazole-3-carboxylic acid {2-[N′-(benzylcarbamoyl-methyl)-hydrazinocarbonyl]-4-chloro-6-methyl-phenyl}-amide], the mortality at 2500 ppm in [1], in assay [3], in assay [5], in assay [7] and in assay [8] was more than 75% in each case. The mortality at 500 ppm in [2] and in assay [4] was 100% in each case.

In [2], `CONC(=O)c1cc(Cl)cc(C)c1NC(=O)c1cc(Br)nn1-c1ncccc1Cl` [Compound X-1, 5-bromo-2-(3-chloro-pyridin-2-yl)-2H-pyrazole 3-carboxylic acid (4-chloro-2-methoxycarbamoyl-6-methyl-phenyl)amide, reference compound] came in with a mortality at 1 ppm of 0%, a mortality at 10 ppm of 100% and a mortality at 30 ppm of 100%. Moreover, in assay [6], the mortality at 1 ppm came to 0%, the mortality at 10 ppm amounted to 100% and the mortality at 30 ppm was found to be 100%.
